Data reported in US20210393604A1, “NOVEL BENZIMIDAZOLONE COMPOUND AND PHARMACEUTICAL USE THEREOF” (Sumitomo Dainippon Pharma Co., Ltd., priority 2017, published 2021).

molecular target: Nav 1.7 (human SCN9A) (Homo sapiens, UniProt Q15858); assay: Measurement of Na ion current by automated patch clamp assay in cells stably-expressing human SCN9A; type: cell-based; details: compound concentration 10 μmol/L; peak current at 30th depolarizing pulse (10 Hz); holding potential inactivating 50% Nav 1.7 channel (around −60 mV); room temperature; read-out: Inhibitory rate (%) of Na ion current
Sequence (Q15858 whole entry): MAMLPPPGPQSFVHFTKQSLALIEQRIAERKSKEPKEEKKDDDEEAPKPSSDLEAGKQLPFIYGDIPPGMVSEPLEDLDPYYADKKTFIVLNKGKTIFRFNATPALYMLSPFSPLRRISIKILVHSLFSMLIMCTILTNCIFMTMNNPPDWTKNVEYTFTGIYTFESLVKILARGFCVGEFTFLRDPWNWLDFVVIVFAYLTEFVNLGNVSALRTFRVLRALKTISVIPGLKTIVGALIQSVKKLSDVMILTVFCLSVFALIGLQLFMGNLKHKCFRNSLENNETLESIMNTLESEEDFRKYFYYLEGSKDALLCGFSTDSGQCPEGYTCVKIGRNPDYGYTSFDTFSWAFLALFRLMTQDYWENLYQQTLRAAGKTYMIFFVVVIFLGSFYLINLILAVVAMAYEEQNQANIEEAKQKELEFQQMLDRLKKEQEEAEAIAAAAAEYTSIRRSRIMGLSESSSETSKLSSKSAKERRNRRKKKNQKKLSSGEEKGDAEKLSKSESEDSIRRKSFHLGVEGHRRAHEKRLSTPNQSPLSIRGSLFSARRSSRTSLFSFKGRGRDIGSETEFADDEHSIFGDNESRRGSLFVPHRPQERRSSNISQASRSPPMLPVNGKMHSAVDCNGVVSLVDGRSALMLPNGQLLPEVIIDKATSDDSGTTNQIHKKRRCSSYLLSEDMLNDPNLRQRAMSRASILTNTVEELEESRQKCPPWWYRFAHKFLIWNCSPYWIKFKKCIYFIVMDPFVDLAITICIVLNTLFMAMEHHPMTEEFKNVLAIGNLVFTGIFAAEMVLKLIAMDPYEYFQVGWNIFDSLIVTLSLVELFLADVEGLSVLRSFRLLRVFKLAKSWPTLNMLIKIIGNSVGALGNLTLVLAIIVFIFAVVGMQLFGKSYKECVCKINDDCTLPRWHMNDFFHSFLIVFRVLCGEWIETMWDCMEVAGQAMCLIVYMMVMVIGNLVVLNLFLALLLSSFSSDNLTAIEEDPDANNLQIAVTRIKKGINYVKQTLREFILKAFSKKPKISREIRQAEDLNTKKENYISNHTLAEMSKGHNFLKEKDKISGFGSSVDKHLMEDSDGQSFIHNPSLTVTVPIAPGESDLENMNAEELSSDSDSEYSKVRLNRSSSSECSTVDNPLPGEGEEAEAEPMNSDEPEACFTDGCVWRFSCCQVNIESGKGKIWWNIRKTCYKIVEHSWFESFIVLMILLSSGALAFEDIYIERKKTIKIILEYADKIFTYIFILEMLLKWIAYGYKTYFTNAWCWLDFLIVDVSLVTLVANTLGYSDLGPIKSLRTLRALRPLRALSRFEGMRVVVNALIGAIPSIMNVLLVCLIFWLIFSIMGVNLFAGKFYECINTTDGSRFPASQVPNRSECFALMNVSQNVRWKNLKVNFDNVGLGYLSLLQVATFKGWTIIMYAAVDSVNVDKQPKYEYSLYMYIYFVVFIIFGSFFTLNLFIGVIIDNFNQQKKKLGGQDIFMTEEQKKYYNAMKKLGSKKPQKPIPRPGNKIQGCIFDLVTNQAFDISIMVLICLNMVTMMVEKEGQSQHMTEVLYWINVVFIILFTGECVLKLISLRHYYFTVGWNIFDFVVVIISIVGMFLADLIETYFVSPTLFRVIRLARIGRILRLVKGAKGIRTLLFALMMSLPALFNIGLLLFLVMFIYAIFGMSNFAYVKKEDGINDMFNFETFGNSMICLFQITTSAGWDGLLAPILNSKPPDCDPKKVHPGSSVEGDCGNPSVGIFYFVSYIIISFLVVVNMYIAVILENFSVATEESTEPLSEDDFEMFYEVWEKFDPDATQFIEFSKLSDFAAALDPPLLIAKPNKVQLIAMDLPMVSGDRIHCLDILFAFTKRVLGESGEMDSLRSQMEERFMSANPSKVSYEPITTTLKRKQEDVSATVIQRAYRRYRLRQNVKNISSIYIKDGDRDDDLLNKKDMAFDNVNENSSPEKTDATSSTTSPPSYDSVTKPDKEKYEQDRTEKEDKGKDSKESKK
Experimental: Measurement of Na Ion Current in Voltage-Dependent Na Channel Gene Expressed Cell
Nav 1.7 current was measured by automated patch clamp assay using cells stably-expressing human SCN9A.
Cells Stably-Expressing Human SCN9A
Tetracycline-induced cells stably-expressing SCN9A were obtained from ChanTest Corporation. The cells were passaged in Ham's F-12 medium containing […], 100 units/mL Penicillin-Streptomycin, 0.01 mg/mL Blasticidin, and 400 μg/mL Zeocin. The cell seeded on a glass slide was cultured in Ham's F-12 medium containing 1 μg/mL tetracycline, 1 μg/mL sodium butyrate, 10% fetal bovine serum, and 100 units/mL Penicillin-Streptomycin. Next day, the Na ion current was measured by automated patch clamp assay.
Electrophysiologic Measurement of Na Ion Current
The Na ion current was measured by automated patch clamp assay using the following extracellular solution and intracellular solution.
Extracellular solution (mmol/L): NaCl 130, MgCl2 2, CaCl2) 2, CdCl2 0.1, NiCl2 0.1, Tetraethylammonium-Cl 18, 4-aminopyridine 1, HEPES (4-(2-hydroxyethyl)-1-piperazineethanesulfonic acid) 10, (adjusting pH 7.4 with NaOH)
Intracellular solution (mmol/L): CsF 120, EGTA (ethylene glycol tetraacetic acid) 10, NaCl 15, HEPES 10, (adjusting pH 7.2 with CsOH)
The control of the stimulating pulse and the data acquisition were carried out using EPC10 amplifier and Patch Master Software (HEKA). Data were sampled at 20 kHz, and low-pass filtered at 2.9 kHz. All the measurements were carried out at room temperature. The holding potential was set at a potential inactivating 50% Nav 1.7 channel (around −60 mV), and depolarizing pulse of 20 milliseconds (around 0 mV) was given at a frequency of 10 Hz 30 times. […] The inhibitory rate of the Na ion current by the test compounds was calculated according to the following calculating formula with the peak current value generated by the 30th depolarizing pulse.
Inhibitory rate of Na ion current (%)=100×[(Peak current value in the absence of Test Compound)−(Peak current value in the presence of Test Compound)]/(Peak current value in the absence of Test Compound)

| SMILES | inhibition at 10 µM [%] |
| --- | --- |
| CC(C)(O)Cn1c(=O)[nH]c2ccc(Oc3ccc(C(F)(F)F)cn3)cc21 [Example 1, 1-(2-hydroxy-2-methylpropyl)-6-{[5-(trifluoromethyl)pyridin-2-yl]oxy}-1,3-dihydro-2H-benzimidazol-2-one] | 33 |
| O=c1[nH]c2ccc(Oc3ccc(C(F)(F)F)cn3)cc2n1CC1(O)COC1 [Example 2, 1-[(3-hydroxyoxetan-3-yl)methyl]-6-{[5-(trifluoromethyl)pyridin-2-yl]oxy}-1,3-dihydro-2H-benzimidazol-2-one] | 26 |
| O=c1[nH]c2ccc(Oc3ccc(C(F)(F)F)nc3)cc2n1CC1(O)COC1 [Example 3, 1-[(3-hydroxyoxetan-3-yl)methyl]-6-{[6-(trifluoromethyl)pyridin-3-yl]oxy}-1,3-dihydro-2H-benzimidazol-2-one] | 22 |
| O=c1[nH]c2ccc(Oc3ccc(C(F)(F)F)cn3)cc2n1[C@H]1CC[C@@H](O)CC1 [Example 4, 1-(cis-4-hydroxycyclohexyl)-6-{[5-(trifluoromethyl)pyridin-2-yl]oxy}-1,3-dihydro-2H-benzimidazol-2-one] | 39 |
| CC(C)(O)Cn1c(=O)[nH]c2ccc(Oc3ccc(F)cc3)cc21 [Example 6, 6-(4-fluorophenoxy)-1-(2-hydroxy-2-methylpropyl)-1,3-dihydro-2H-benzimidazol-2-one] | 40 |
| O=c1[nH]c2ccc(Oc3ccc(Cl)cc3)cc2n1CC1(O)COC1 [Example 8, 6-(4-chlorophenoxy)-1-[(3-hydroxyoxetan-3-yl)methyl]-1,3-dihydro-2H-benzimidazol-2-one] | 80 |
| CCn1c(=O)n(CC(C)(C)O)c2cc(Oc3ccc(C(F)(F)F)cn3)ccc21 [Example 12, 1-ethyl-3-(2-hydroxy-2-methylpropyl)-5-{[5-(trifluoromethyl)pyridin-2-yl]oxy}-1,3-dihydro-2H-benzimidazol-2-one] | 14 |
| Cn1c(=O)n(CC(C)(C)O)c2cc(Oc3ccc(C(F)(F)F)cn3)ccc21 [Example 13, 3-(2-hydroxy-2-methylpropyl)-1-methyl-5-{[5-(trifluoromethyl)pyridin-2-yl]oxy}-1,3-dihydro-2H-benzimidazol-2-one] | 38 |
| Cn1c(=O)n(CC2(O)COC2)c2cc(Oc3ccc(C(F)(F)F)cn3)ccc21 [Example 14, 3-[(3-hydroxyoxetan-3-yl)methyl]-1-methyl-5-{[5-(trifluoromethyl)pyridin-2-yl]oxy}-1,3-dihydro-2H-benzimidazol-2-one] | 39 |
| Cn1c(=O)n(CC2(O)COC2)c2cc(Oc3ccc(C(F)(F)F)nc3)ccc21 [Example 15, 3-[(3-hydroxyoxetan-3-yl)methyl]-1-methyl-5-{[6-(trifluoromethyl)pyridin-3-yl]oxy}-1,3-dihydro-2H-benzimidazol-2-one] | 46 |
| Cn1c(=O)n(CC2(O)COC2)c2cc(Oc3ccc(OC(F)(F)F)cc3)ccc21 [Example 17, 3-[(3-hydroxyoxetan-3-yl)methyl]-1-methyl-5-[4-(trifluoromethoxy)phenoxy]-1,3-dihydro-2H-benzimidazol-2-one] | 87 |
| Cn1c(=O)n(CC2(O)COC2)c2cc(Oc3ccc(Cl)cc3)ccc21 [Example 18, 5-(4-chlorophenoxy)-3-[(3-hydroxyoxetan-3-yl)methyl]-1-methyl-1,3-dihydro-2H-benzimidazol-2-one] | 86 |
| CC(C)(O)Cn1c(=O)[nH]c2ccc(-c3ccc(C(F)(F)F)nc3)cc21 [Example 19, 1-(2-hydroxy-2-methylpropyl)-6-[6-(trifluoromethyl)pyridin-3-yl]-1,3-dihydro-2H-benzimidazol-2-one] | 8 |
| CC(C)(O)Cn1c(=O)[nH]c2ccc(-c3ccc(C(F)(F)F)cn3)cc21 [Example 20, 1-(2-hydroxy-2-methylpropyl)-6-[5-(trifluoromethyl)pyridin-2-yl]-1,3-dihydro-2H-benzimidazol-2-one] | 29 |
| CC(C)(O)Cn1c(=O)[nH]c2cc(-c3ccc(C(F)(F)F)nc3)ccc21 [Example 23, 1-(2-hydroxy-2-methylpropyl)-5-[6-(trifluoromethyl)pyridin-3-yl]-1,3-dihydro-2H-benzimidazol-2-one] | 36 |
| CC(C)(O)Cn1c(=O)[nH]c2cc(Oc3ccc(C(F)(F)F)cn3)ccc21 [Example 26, 1-(2-hydroxy-2-methylpropyl)-5-{[5-(trifluoromethyl)pyridin-2-yl]oxy}-1,3-dihydro-2H-benzimidazol-2-one] | 32 |
| Cn1c(=O)n(CC2(O)COC2)c2ccc(Oc3ccc(OC(F)(F)F)cc3)cc21 [Example 28, 1-[(3-hydroxyoxetan-3-yl)methyl]-3-methyl-5-[4-(trifluoromethoxy)phenoxy]-1,3-dihydro-2H-benzimidazol-2-one] | 39 |

Second part, the molecule after the results:

| inhibition at 10 µM [%] | SMILES |
| --- | --- |
| 86 | O=c1[nH]c2ccc(Oc3ccc(OC(F)(F)F)cc3)cc2n1CC1(O)COC1 [Example 5, 1-[(3-hydroxyoxetan-3-yl)methyl]-6-[4-(trifluoromethoxy)phenoxy]-1,3-dihydro-2H-benzimidazol-2-one] |
| 40 | O=c1[nH]c2ccc(Oc3ccc(F)cc3)cc2n1CC1(O)COC1 [Example 7, 6-(4-fluorophenoxy)-1-[(3-hydroxyoxetan-3-yl)methyl]-1,3-dihydro-2H-benzimidazol-2-one] |
| 27 | C[C@H](n1c(=O)[nH]c2ccc(Oc3ccc(C(F)(F)F)cn3)cc21)C(C)(C)O [Example 9, 1-[(2S)-3-hydroxy-3-methylbutan-2-yl]-6-{[5-(trifluoromethyl)pyridin-2-yl]oxy}-1,3-dihydro-2H-benzimidazol-2-one] |
| 50 | C[C@H](n1c(=O)[nH]c2ccc(Oc3ccc(F)cc3)cc21)C(C)(C)O [Example 10, 6-(4-fluorophenoxy)-1-[(2S)-3-hydroxy-3-methylbutan-2-yl]-1,3-dihydro-2H-benzimidazol-2-one] |
| 65 | O=c1[nH]c2ccc(Oc3ccc(F)cc3)cc2n1[C@H]1CC[C@@H](O)CC1 [Example 11, 6-(4-fluorophenoxy)-1-(cis-4-hydroxycyclohexyl)-1,3-dihydro-2H-benzimidazol-2-one] |
| 61 | Cn1c(=O)n(CC2(O)COC2)c2cc(Oc3ccc(F)cc3)ccc21 [Example 16, 5-(4-fluorophenoxy)-3-[(3-hydroxyoxetan-3-yl)methyl]-1-methyl-1,3-dihydro-2H-benzimidazol-2-one] |
| 96 | CC(C)(O)Cn1c(=O)[nH]c2ccc(-c3ccc(C(F)(F)F)cc3)cc21 [Example 21, 1-(2-hydroxy-2-methylpropyl)-6-[4-(trifluoromethyl)phenyl]-1,3-dihydro-2H-benzimidazol-2-one] |
| 43 | CC(C)(O)Cn1c(=O)[nH]c2ccc(-c3ccc(F)cc3)cc21 [Example 22, 6-(4-fluorophenyl)-1-(2-hydroxy-2-methylpropyl)-1,3-dihydro-2H-benzimidazol-2-one] |
| 45 | CC(C)(O)Cn1c(=O)[nH]c2cc(-c3ccc(F)cc3)ccc21 [Example 24, 5-(4-fluorophenyl)-1-(2-hydroxy-2-methylpropyl)-1,3-dihydro-2H-benzimidazol-2-one] |
| 42 | CC(C)(O)Cn1c(=O)[nH]c2cc(Oc3ccc(OC(F)(F)F)cc3)ccc21 [Example 25, 1-(2-hydroxy-2-methylpropyl)-5-[4-(trifluoromethoxy)phenoxy]-1,3-dihydro-2H-benzimidazol-2-one] |
| 38 | O=c1[nH]c2cc(Oc3ccc(OC(F)(F)F)cc3)ccc2n1CC1(O)COC1 [Example 27, 1-[(3-hydroxyoxetan-3-yl)methyl]-5-[4-(trifluoromethoxy)phenoxy]-1,3-dihydro-2H-benzimidazol-2-one] |
